Experimental data: publication doi:10.1101/2024.08.19.608619, “Discovery of potent SARS-CoV-2 nsp3 macrodomain inhibitors uncovers lack of translation to cellular antiviral response” (bioRxiv, 2024)
Where two headings read alike, the source gives them in different places.

Tests used:
Assay in all cases: biochemical
Design in all cases: In vitro kinase panel profiling, per cent remaining kinase activity at 10 uM
CaMKI(h) = molecular target: T1, CaMKI(h) (Homo sapiens, UniProt Q14012); conditions: atp_concentration=200, read-out: % of control remaining
T1 construct: gene CAMK1
T1 sequence (Q14012 whole entry): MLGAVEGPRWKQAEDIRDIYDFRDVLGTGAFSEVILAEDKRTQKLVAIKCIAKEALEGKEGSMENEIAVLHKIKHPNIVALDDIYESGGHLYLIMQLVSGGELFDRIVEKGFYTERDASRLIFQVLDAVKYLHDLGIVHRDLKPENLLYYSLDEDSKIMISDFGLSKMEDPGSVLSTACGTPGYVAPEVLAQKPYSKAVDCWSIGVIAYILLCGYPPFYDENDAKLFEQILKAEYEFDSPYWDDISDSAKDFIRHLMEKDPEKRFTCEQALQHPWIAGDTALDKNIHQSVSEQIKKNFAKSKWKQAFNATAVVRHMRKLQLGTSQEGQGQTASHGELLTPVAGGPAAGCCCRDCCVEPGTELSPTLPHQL
Source text: (§1) We derisk potential for off-target activity by profiling the compound in a CEREP panel, a standard secondary pharmacology assessment, as well as a kinase panel to derisk a potential hinge-binding motif in our leads, and a PARP panel to derisk activity against human […]. Reassuringly, the compounds are selective, with the only off-targets being moderate human CHRM2 and KOR receptors activity associated with ASAP-0011198.

EphB4(h) = molecular target: T2, EphB4(h) (Homo sapiens, UniProt P54760); conditions: atp_concentration=10, read-out: % of control remaining
T2 sequence (P54760 1-987): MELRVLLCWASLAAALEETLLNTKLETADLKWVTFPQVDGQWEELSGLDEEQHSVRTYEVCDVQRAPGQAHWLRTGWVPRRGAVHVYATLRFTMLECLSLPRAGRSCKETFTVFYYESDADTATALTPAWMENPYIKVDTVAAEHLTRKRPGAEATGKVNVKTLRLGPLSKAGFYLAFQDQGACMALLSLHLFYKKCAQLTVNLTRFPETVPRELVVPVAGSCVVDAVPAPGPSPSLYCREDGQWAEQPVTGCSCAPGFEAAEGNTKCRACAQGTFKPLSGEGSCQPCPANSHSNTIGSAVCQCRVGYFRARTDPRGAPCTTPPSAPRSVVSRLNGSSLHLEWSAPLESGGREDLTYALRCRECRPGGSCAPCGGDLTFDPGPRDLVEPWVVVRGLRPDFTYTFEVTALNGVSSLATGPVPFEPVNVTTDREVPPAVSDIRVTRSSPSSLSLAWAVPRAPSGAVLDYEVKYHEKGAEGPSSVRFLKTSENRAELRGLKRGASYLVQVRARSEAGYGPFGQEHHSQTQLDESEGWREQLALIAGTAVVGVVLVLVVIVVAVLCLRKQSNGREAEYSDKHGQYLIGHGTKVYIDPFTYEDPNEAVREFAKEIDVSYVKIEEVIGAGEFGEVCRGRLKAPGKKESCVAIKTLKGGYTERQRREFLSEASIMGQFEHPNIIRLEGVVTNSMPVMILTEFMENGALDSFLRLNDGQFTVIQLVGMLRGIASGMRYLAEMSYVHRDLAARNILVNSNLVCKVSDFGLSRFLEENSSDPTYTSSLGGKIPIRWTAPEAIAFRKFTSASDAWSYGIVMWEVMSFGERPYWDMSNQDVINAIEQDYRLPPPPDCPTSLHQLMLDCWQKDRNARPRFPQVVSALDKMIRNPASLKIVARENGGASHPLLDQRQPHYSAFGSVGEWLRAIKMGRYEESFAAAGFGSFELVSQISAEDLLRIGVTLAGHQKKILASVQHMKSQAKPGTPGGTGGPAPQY
Source text: as §1

IKKα(h) = molecular target: T3, IKKα(h) (Homo sapiens, UniProt O15111); conditions: atp_concentration=10, read-out: % of control remaining
T3 construct: gene CHUK
T3 sequence (O15111 1-745): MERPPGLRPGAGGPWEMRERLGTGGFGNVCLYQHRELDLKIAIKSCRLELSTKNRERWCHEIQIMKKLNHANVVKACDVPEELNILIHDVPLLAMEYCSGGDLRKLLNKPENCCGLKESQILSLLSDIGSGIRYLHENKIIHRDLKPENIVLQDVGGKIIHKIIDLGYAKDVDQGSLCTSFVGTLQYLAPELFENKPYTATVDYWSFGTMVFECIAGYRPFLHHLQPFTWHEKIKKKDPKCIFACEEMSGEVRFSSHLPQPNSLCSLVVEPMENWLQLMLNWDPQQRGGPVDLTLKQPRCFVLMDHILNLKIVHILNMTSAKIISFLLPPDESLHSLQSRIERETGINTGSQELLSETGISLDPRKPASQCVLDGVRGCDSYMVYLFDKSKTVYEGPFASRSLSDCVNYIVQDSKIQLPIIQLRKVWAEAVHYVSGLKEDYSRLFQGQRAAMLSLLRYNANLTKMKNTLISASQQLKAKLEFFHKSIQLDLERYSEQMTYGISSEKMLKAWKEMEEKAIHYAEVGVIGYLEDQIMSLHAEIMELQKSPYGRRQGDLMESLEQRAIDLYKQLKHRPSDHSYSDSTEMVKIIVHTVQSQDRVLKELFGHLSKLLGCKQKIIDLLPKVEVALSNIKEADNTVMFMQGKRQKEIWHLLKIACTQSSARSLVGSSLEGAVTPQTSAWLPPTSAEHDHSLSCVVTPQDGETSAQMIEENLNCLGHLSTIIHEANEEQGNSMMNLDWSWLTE
Source text: as §1

IRAK4(h) = molecular target: T4, IRAK4(h) (Homo sapiens, UniProt Q9NWZ3); conditions: atp_concentration=200, read-out: % of control remaining
T4 sequence (Q9NWZ3 1-460): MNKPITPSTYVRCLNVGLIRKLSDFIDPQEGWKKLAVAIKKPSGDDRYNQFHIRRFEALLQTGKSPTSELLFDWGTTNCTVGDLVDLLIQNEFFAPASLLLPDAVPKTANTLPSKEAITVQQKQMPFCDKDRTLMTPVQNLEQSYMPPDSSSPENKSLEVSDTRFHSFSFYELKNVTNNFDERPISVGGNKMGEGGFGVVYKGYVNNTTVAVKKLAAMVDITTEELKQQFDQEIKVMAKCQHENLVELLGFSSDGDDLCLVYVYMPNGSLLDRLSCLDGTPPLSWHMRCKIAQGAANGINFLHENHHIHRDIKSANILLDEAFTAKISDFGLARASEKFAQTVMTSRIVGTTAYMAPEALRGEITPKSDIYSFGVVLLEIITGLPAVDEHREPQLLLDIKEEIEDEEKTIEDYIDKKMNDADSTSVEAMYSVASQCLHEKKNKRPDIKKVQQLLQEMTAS
Source text: as §1

LOK(h) = molecular target: T5, LOK(h) (Homo sapiens, UniProt O94804); conditions: atp_concentration=120, read-out: % of control remaining
T5 construct: gene STK10
T5 sequence (O94804 whole entry): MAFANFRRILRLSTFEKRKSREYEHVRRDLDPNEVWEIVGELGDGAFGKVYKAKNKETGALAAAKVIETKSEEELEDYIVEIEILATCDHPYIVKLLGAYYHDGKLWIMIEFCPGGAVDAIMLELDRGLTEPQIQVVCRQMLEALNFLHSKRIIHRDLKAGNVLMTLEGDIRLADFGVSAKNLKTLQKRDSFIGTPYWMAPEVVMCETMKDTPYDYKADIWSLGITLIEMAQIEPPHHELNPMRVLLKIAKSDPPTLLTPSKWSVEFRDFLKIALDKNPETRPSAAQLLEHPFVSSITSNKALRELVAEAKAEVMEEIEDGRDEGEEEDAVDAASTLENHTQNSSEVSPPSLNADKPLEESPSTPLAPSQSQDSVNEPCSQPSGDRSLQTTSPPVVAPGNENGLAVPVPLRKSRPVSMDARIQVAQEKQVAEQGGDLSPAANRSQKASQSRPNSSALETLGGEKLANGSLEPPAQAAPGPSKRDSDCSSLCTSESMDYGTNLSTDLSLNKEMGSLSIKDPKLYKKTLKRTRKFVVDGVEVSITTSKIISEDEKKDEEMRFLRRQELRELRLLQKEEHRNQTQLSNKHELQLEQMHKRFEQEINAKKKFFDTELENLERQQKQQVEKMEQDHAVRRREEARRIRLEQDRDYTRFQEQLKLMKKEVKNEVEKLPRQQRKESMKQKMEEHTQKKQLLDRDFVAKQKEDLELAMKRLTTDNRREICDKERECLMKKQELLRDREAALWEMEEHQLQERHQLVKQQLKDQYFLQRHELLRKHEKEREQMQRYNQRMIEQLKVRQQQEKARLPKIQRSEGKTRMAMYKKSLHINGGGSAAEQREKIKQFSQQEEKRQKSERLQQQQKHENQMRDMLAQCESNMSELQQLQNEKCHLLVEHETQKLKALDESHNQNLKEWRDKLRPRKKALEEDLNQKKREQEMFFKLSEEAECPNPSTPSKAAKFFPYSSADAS
Source text: as §1

PI3 Kinase (p120γ)(h) = molecular target: T6, PI3 Kinase (p120γ)(h) (Homo sapiens, UniProt P48736); conditions: atp_concentration=100, read-out: % of control remaining
T6 construct: gene PIK3CG
T6 sequence (P48736 whole entry): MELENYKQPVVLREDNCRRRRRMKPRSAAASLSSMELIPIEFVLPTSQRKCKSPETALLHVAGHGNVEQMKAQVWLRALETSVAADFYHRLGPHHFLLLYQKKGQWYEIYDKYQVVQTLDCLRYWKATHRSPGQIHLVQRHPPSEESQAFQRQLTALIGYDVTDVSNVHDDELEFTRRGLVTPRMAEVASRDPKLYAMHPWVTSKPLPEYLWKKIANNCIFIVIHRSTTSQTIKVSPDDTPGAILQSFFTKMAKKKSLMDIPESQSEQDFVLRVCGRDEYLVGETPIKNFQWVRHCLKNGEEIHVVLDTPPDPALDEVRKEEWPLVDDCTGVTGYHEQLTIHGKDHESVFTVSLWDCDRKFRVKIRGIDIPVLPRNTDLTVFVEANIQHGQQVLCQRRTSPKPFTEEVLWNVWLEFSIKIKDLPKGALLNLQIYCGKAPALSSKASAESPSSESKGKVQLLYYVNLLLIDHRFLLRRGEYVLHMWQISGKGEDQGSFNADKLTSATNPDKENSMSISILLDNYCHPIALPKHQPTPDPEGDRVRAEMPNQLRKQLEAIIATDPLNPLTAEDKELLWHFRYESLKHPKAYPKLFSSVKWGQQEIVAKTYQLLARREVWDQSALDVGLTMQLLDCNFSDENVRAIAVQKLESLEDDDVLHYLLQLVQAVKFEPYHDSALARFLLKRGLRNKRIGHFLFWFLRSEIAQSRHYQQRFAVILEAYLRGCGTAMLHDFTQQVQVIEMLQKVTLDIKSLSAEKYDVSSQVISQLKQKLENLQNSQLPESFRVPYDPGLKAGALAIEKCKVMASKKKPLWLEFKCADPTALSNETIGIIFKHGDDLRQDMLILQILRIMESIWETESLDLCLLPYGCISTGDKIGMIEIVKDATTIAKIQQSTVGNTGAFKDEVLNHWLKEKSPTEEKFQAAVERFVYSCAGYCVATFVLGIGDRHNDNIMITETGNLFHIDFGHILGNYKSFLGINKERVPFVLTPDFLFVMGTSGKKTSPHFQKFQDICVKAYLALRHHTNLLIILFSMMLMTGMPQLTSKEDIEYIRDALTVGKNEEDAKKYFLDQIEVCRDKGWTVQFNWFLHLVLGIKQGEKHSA
Source text: as §1

In the case of `C[C@H](C(=O)O)[C@@H](NC(=O)c1ncnc2[nH]ccc12)c1ccc(Br)cc1` [ASAP-0014722], the remaining activity at 10 µM (CaMKI(h); batch_name=ASAP-0014722-002) is reported as 101%, the remaining activity at 10 µM (EphB4(h); batch_name=ASAP-0014722-002) is reported as 105% and the remaining activity at 10 µM (IKKα(h); batch_name=ASAP-0014722-002) is reported as 99%. It also gave a remaining activity at 10 µM (IRAK4(h); batch_name=ASAP-0014722-002) of 106%, a remaining activity at 10 µM (LOK(h); batch_name=ASAP-0014722-002) of 97% and a remaining activity at 10 µM (PI3 Kinase (p120γ)(h); batch_name=ASAP-0014722-002) of 97%.

Compound `CNCc1cc(-c2cc3c(N[C@@H](c4ccc5c(c4)S(=O)(=O)CCC5)C(C)C)ncnc3[nH]2)co1` [ASAP-0011176] has a remaining activity at 10 µM (CaMKI(h); batch_name=ASAP-0011176-002) of 87%, a remaining activity at 10 µM (EphB4(h); batch_name=ASAP-0011176-002) of 92% and a remaining activity at 10 µM (IKKα(h); batch_name=ASAP-0011176-002) of 79%. For the same compound, the remaining activity at 10 µM (IRAK4(h); batch_name=ASAP-0011176-002) was 100%, the remaining activity at 10 µM (LOK(h); batch_name=ASAP-0011176-002) was 92% and the remaining activity at 10 µM (PI3 Kinase (p120γ)(h); batch_name=ASAP-0011176-002) was 96%.

With `CC(C)[C@H](Nc1ncnc2[nH]ccc12)c1ccc2c(c1)S(=O)(=O)CCC2` [ASAP-0008674] the remaining activity at 10 µM (CaMKI(h); batch_name=ASAP-0008674-002) was 92%, the remaining activity at 10 µM (EphB4(h); batch_name=ASAP-0008674-002) was 86% and the remaining activity at 10 µM (IKKα(h); batch_name=ASAP-0008674-002) was 92%. For the same compound, the remaining activity at 10 µM (IRAK4(h); batch_name=ASAP-0008674-002) was 112%, the remaining activity at 10 µM (LOK(h); batch_name=ASAP-0008674-002) was 102% and the remaining activity at 10 µM (PI3 Kinase (p120γ)(h); batch_name=ASAP-0008674-002) was 98%.

`CC(C)[C@H](Nc1ncnc2[nH]c(-c3cnn(C)c3C#N)cc12)c1ccc2c(n1)OCCO2` [ASAP-0010715] gave a remaining activity at 10 µM (CaMKI(h); batch_name=ASAP-0010715-002) of 104%, a remaining activity at 10 µM (EphB4(h); batch_name=ASAP-0010715-002) of 89% and a remaining activity at 10 µM (IKKα(h); batch_name=ASAP-0010715-002) of 120%. For the same compound, the remaining activity at 10 µM (IRAK4(h); batch_name=ASAP-0010715-002) was 106%, the remaining activity at 10 µM (LOK(h); batch_name=ASAP-0010715-002) was 45% and the remaining activity at 10 µM (PI3 Kinase (p120γ)(h); batch_name=ASAP-0010715-002) was 80%.

For `Cn1ncc(-c2cc3c(N[C@@H](c4ccc5c(n4)OCCO5)C(C)(C)C)ncnc3[nH]2)c1C#N` [ASAP-0011221], the remaining activity at 10 µM (CaMKI(h); batch_name=ASAP-0011221-002) was 87%, the remaining activity at 10 µM (EphB4(h); batch_name=ASAP-0011221-002) was 115% and the remaining activity at 10 µM (IKKα(h); batch_name=ASAP-0011221-002) was 125%. The remaining activity at 10 µM (IRAK4(h); batch_name=ASAP-0011221-002) was 132%, the remaining activity at 10 µM (LOK(h); batch_name=ASAP-0011221-002) was 122% and the remaining activity at 10 µM (PI3 Kinase (p120γ)(h); batch_name=ASAP-0011221-002) was 88%.

`CC(C)C(Nc1ncnc2[nH]c(C(=O)NC3CCN(C)C3)cc12)c1ccc2c(c1)S(=O)(=O)CCC2` (stereo not drawn) [ASAP-0011198] showed a remaining activity at 10 µM (CaMKI(h); batch_name=ASAP-0011198-002) of 100%, a remaining activity at 10 µM (EphB4(h); batch_name=ASAP-0011198-002) of 86% and a remaining activity at 10 µM (IKKα(h); batch_name=ASAP-0011198-002) of 82%. The remaining activity at 10 µM (IRAK4(h); batch_name=ASAP-0011198-002) was 105%, the remaining activity at 10 µM (LOK(h); batch_name=ASAP-0011198-002) was 99% and the remaining activity at 10 µM (PI3 Kinase (p120γ)(h); batch_name=ASAP-0011198-002) was 97%.

In the case of `CC(C)C(Nc1ncnc2[nH]ccc12)c1ccc2c(c1)S(=O)(=O)CCC2` (stereo not drawn) [ASAP-0008327], the remaining activity at 10 µM (CaMKI(h); batch_name=ASAP-0008327-001) is reported as 94%, the remaining activity at 10 µM (EphB4(h); batch_name=ASAP-0008327-001) is reported as 91% and the remaining activity at 10 µM (IKKα(h); batch_name=ASAP-0008327-001) is reported as 91%. For the same compound, the remaining activity at 10 µM (IRAK4(h); batch_name=ASAP-0008327-001) was 88%, the remaining activity at 10 µM (LOK(h); batch_name=ASAP-0008327-001) was 104% and the remaining activity at 10 µM (PI3 Kinase (p120γ)(h); batch_name=ASAP-0008327-001) was 103%.

`COc1ccc([C@@H](Cc2nnn[nH]2)NC(=O)c2ncnc3[nH]ccc23)cc1` [ASAP-0008340] was tested, and the remaining activity at 10 µM (CaMKI(h); batch_name=ASAP-0008340-001) was 100%, the remaining activity at 10 µM (EphB4(h); batch_name=ASAP-0008340-001) was 88% and the remaining activity at 10 µM (IKKα(h); batch_name=ASAP-0008340-001) was 99%. The remaining activity at 10 µM (IRAK4(h); batch_name=ASAP-0008340-001) was 91%, the remaining activity at 10 µM (LOK(h); batch_name=ASAP-0008340-001) was 96% and the remaining activity at 10 µM (PI3 Kinase (p120γ)(h); batch_name=ASAP-0008340-001) was 89%.

`CC(C)[C@@H](Nc1ncnc2[nH]c(-c3cnn(C)c3C#N)cc12)c1ccc2c(n1)OCCO2` [ASAP-0008418] showed a remaining activity at 10 µM (CaMKI(h); batch_name=ASAP-0008418-001) of 104%, a remaining activity at 10 µM (EphB4(h); batch_name=ASAP-0008418-001) of 75% and a remaining activity at 10 µM (IKKα(h); batch_name=ASAP-0008418-001) of 111%. For the same compound, the remaining activity at 10 µM (IRAK4(h); batch_name=ASAP-0008418-001) was 100%, the remaining activity at 10 µM (LOK(h); batch_name=ASAP-0008418-001) was 47% and the remaining activity at 10 µM (PI3 Kinase (p120γ)(h); batch_name=ASAP-0008418-001) was 63%.
